Columns and labels:
rat cardiac fibroblasts = conditions: cited from earlier work
[1] = Toxicity study, 5 days, body weight and serum chemistries; assay type: in vivo, C57Bl/6 male mice
Description: For toxicity analysis, mice (n = 3) were given 20 mg/ kg of M-I twice a day or 30 mg/kg IP dose of M-I once a day by IP injection for five days. In parallel, there were untreated control (n = 3) and BME treated group (n = 3) for comparison. Behavior and body weight of mice were monitored daily. The body weight in all the mice was stable, with no drastic changes seen in any of the mice tested. We collected blood on day six, and serum chemistries related to liver and kidney function were examined.
For toxicity study, C57Bl/6 male mice were received either 30% BME through drinking water or 20 mg/kg of M-I twice a day or 30 mg/kg of M-I once a day by IP injection for 5 days. There were three mice in each group, including untreated control. Blood was collected on day 6, and serum was prepared. Serum parameters related to hepatotoxicity (total bilirubin, alanine transaminase, aspartate transaminase, and alkaline phosphatase) and nephrotoxicity (urea and creatinine) were performed.

JHU029 xenograft = assay: Tumorigenicity assay, HNC xenograft model; assay type: in vivo, BALB/c athymic nude mice
Description: Figure 6 Therapeutic effect of momordicine-I in JHU029 xenograft model. JHU029 cells (1.5 × 10^6) cells were injected subcutaneously into the flank of nude mice. After the formation of a palpable tumor, mice were randomly divided into three groups (n = 5): Control (without any treatment), BME group (30% BME through drinking water) and M-I group (30 mg/kg IP, once in a day and every day). (A) Body weight was measured in control and treated mice. (B) Representative images of tumors in control and treatment groups. (C) Tumors were measured using a slide caliper and tumor volumes were calculated. Arrow indicates starting point BME/M-I treatment. (D) Control or treated tumor lysates were subjected to Western blot analysis for c-Met and c-Myc expression using specific antibodies and representative bands are shown. The blot was reprobed with an antibody to Actin for normalization. […] Small bar indicates standard error (*, p < 0.05; *** p < 0.001).
(§1) JHU029 or Cal27 cells (1.5 × 10^6) containing 40% Matrigel were injected subcutaneously into the flank of BALB/c athymic nude mice (7–8 weeks old). When the palpable tumor was developed (>60 mm^3), mice were divided into three groups randomly, 5 mice in each group. The control group was without any treatment. The BME group received 30% (v/v) BME through drinking water. M-I group received 30 mg/kg dose of M-I once in day, every day. Body weight was monitored, and tumor size was measured using a slide caliper and volume was calculated using the formula ½ L × W^2. After animal sacrifice tumors were dissected out and snap frozen in liquid nitrogen for further analysis. All the animal experiments were carried out in accordance NIH guidelines, following a protocol approved (1017) by the Institutional Animal Care and Use Committee (IACUC) of Saint Louis University.

insulin secretion = conditions: cited from earlier work
survivin = assay: Western blot of treated HNC cells; assay type: cell-based, human; conditions: Cal27 and JHU029 cells, 48 hr; 2% BME or 10 µg/mL M-I
Description: Representative Western blot image for c-Myc, survivin and cyclin D1 expression in Cal27 and JHU029 cells with treatment of BME or M-I. The same membrane used in panel A was reprobed. Actin was used as internal control. Quantitative representation of Western blot band intensities (right panel). Small bar indicates standard error (*** p < 0.001).
Bitter melon extract (BME) was prepared from the Chinese variety of young bitter melons (raw and green) as described previously [17]. Briefly, BME was prepared by aqueous extraction from whole fruit without seeds using a household juicer at room temperature with subsequent centrifugation at 15000× g at 4 °C for 30 min. BME was stored at −80 °C for further analysis. Cal27 and JHU029 cells were treated with 2% BME and JHU022 cells were treated with 3% BME as described previously [17, 21]. […] The powder was dissolved in DMSO and added to the cells at different concentrations. Based on cytotoxicity data, Cal27 and JHU029 cells were treated with 10 µg/mL and JHU022 cells were treated with 20 µg/mL dose of M-I and incubated for 48 hr for further experiments. All the experiments were done at least in triplicate.
HRP conjugated anti-mouse or anti-rabbit secondary antibodies were purchased from Bio-Rad (Hercules, CA, USA). The blot was reprobed with HRP conjugated β-actin antibody (1:5000; SBT) to compare protein load in each lane. […]

Cal27 xenograft = assay: Tumorigenicity assay, HNC xenograft model; assay type: in vivo, BALB/c athymic nude mice
Description: Figure 7 Therapeutic effect of momordicine-I in Cal27 xenograft model. Cal27 cells (1.5 × 10^6) cells were injected subcutaneously into the flank of nude mice. After formation of palpable tumor, mice were randomly divided into three groups (n = 5): Control (without any treatment), BME group (30% BME through drinking water) and M-I group (30 mg/kg IP, once in a day and every day). (A) Body weight was measured in control and treated mice. (B) Tumors were measured using a slide caliper and tumor volumes were calculated. Arrow indicates starting point BME/ M-I treatment. (C,D) Control or treated tumor lysates were subjected to Western blot analysis for c-Met and c-Myc expression using specific antibodies and representative bands are shown. The blot was reprobed with an antibody to Actin for normalization. […] Small bar indicates standard error (*, p < 0.05; **, p < 0.01; *** p < 0.001).
as §1

[2] = Pharmacokinetic study, single dose IP or oral gavage; assay type: in vivo, C57Bl/6 male mice; conditions: male C57Bl/6 mouse blood
[3] = JHU029 xenograft tumor lysates, Western blot, vs untreated control tumors
[4] = Cal27 xenograft tumor lysates, Western blot, vs control

SMILES: CC(C)=CC(O)CC(C)[C@H]1CC[C@@]2(C)[C@@H]3[C@@H](O)C=C4[C@@H](CC[C@H](O)C4(C)C)[C@]3(C=O)CC[C@]12C (stereo partly drawn) [M-I, (3S, 7S, 8S, 9R, 10R, 13R, 14S, 17R) 3,7-dihydroxy-17-(4-hydroxy-6-methylhept-5-en-2-yl)-4,4,13,14-tetramethyl-2,3,7,8,10,11, 12,15,16,17-decahydro-1H-cyclopenta[a]phenanthrene-9-carbaldehyde]
- effect on high-glucose-induced cell proliferation and collagen synthesis (rat cardiac fibroblasts): inhibitory effects
- body weight ([1]; M-I 20 mg/kg twice a day or 30 mg/kg once a day IP, or 30% BME in drinking water, five days): stable
- serum chemistries (total bilirubin, alanine transaminase, aspartate transaminase, alkaline phosphatase, creatinine, urea, glucose) versus untreated control ([1]; blood on day six, M-I IP for five days or 30% BME in drinking water): comparable
- c-Met expression in tumors (JHU029 xenograft; [3]): significant reduction
- c-Myc expression in tumors (JHU029 xenograft; [3]): significant reduction
- tumor growth reduction, M-I compared with BME (JHU029 xenograft; JHU029 xenograft, nude mice, M-I 30 mg/kg IP once a day): better effect
- tumor volume (JHU029 xenograft; JHU029 xenograft, nude mice, M-I 30 mg/kg IP once a day or 30% BME in drinking water, to day 32, vs untreated control): significantly reduced
- sudden drop in body weight (JHU029 xenograft; JHU029 xenograft, three out of five mice on Day 20, weight gained back, M-I 30 mg/kg IP once a day): ~ 10%
- insulin secretion in vitro (insulin secretion): stimulate insulin secretion
- survivin expression (survivin): significant inhibition
- c-Met expression in tumors (Cal27 xenograft; [4]): significant reduction
- c-Myc expression in tumors (Cal27 xenograft; [4]): significant reduction
- reduction of tumor growth (Cal27 xenograft; Cal27 xenograft, nude mice, M-I 30 mg/kg IP once a day or 30% BME in drinking water): ~ 50%
- body weight (Cal27 xenograft; Cal27 xenograft, throughout the experiment): increasing body weight
- stability in mouse blood [2]: stable
